Structures can show the parent of a compound that is named as a salt.
What was measured:
ocular surface barrier = settings: mouse model, desiccating stress; cited from earlier work
[1] = system: HCLE monolayer cell cultures; experiment: Vital dye staining assay (fluorescein), oxidative stress, monolayer cells; format: cell-based, human; settings: 3 mM tBHP, 2 hours; Genistein 200 uM, Chlorpromazine 8 ug/mL, Dynasore 40 uM; FIG. 2B
Description: (§1) The purpose of this study was to investigate mechanisms of dye uptake relevant to ocular surface disease. We hypothesized that stimulation of plasma membrane remodeling by sublethal cell damage would result in vital dye uptake into endocytic repair vesicles. Oxidative stress has been implicated in ocular surface damage due to dry eye and many other ocular surface disorders, thus we chose this as the damaging stress for our study. An aqueous stock solution of tert-butyl hydroperoxide (tBHP) was diluted into the medium of human cell cultures or mouse eye organ cultures as we have previously described. The final dilution of tBHP used for cell culture experiments was 3 mM or 10 mM (as indicated in the individual experimental details). A final dilution of 10 mM tBHP was used for mouse eye organ culture experiments. These optimal concentrations were determined empirically in dose-response assessments as causing a high level of vital dye staining without killing cells. As soon as tBHP was added, all cultures were returned to the cell culture incubator under 5% CO2 atmosphere. Stressed cultures were compared to unstressed controls incubated similarly for the same time period. […]
(§2) A telomerase-immortalized line of human corneal limbal epithelial (HCLE) cells was used for all experiments employing cell culture. […] Stratification was routinely evaluated using phase contrast microscopy; differentiation leading to glycocalyx barrier function was evaluated using the rose bengal penetration assay. […]
(§3) Vital dye staining of cells in culture was performed using sodium fluorescein (Sigma-Aldrich). […] Dye uptake was evaluated qualitatively by imaging. Images (excitation/emission=488/510 nm) were taken immediately after washing, so that staining could be evaluated before dye diffused. Fluorescein uptake by cultured cells was quantified using a plate reader and depicted in graphs as relative fluorescence units (RFU). Rose bengal uptake by cultured cells or eyes was quantified using a modification of a previously described method. […]

HCLE stratified cultures [2] = experiment: Vital dye staining assay (fluorescein, rose bengal), oxidative stress, stratified and differentiated cells; format: cell-based, human; settings: 10 mM tBHP; Genistein 200 uM, Chlorpromazine 8 ug/mL, Dynasore 40 uM, Dyngo-4a 15 uM; FIG. 3B-D
Description: (§4) The purpose of this study was to investigate mechanisms of dye uptake relevant to ocular surface disease. We hypothesized that stimulation of plasma membrane remodeling by sublethal cell damage would result in vital dye uptake into endocytic repair vesicles. Oxidative stress has been implicated in ocular surface damage due to dry eye and many other ocular surface disorders, thus we chose this as the damaging stress for our study. An aqueous stock solution of tert-butyl hydroperoxide (tBHP) was diluted into the medium of human cell cultures or mouse eye organ cultures as we have previously described. The final dilution of tBHP used for cell culture experiments was 3 mM or 10 mM (as indicated in the individual experimental details). A final dilution of 10 mM tBHP was used for mouse eye organ culture experiments. These optimal concentrations were determined empirically in dose-response assessments as causing a high level of vital dye staining without killing cells. As soon as tBHP was added, all cultures were returned to the cell culture incubator under 5% CO2 atmosphere. Stressed cultures were compared to unstressed controls incubated similarly for the same time period. Cells were incubated for 2 to 3 hours and mouse eyes were incubated for 2.5 hours before endpoint determination.
(§5) To learn whether endocytosis was involved in dye uptake, the process was blocked by treating cells or eyes with endocytic inhibitors. Chlorpromazine hydrochloride (MP Biologicals, Solon, Ohio), an inhibitor of clathrin-mediated endocytosis, was used at a final dilution of 8 ug/mL. Genistein (Sigma-Aldrich, St Louis, Mo.), an inhibitor of caveolin-mediated endocytosis, was used at 200 uM final dilution. […] All inhibitors were dissolved in DMSO, which served as the treatment vehicle. The same volume of DMSO was added to matching untreated cultures as a vehicle control.
as §2, §3

[3] = system: ocular surface of ex vivo mouse eyes; experiment: Vital dye staining assay, mouse eye organ culture under oxidative stress; settings: for vital dye uptake once the damage was done: used after stress was applied; for dye uptake at the ocular surface, post-treatment: 10 mM tBHP first, FIG. 4B
Description: as §4, §5
The University of Southern California's Institutional Animal Care and Use Committee approved the research protocol number 11412 for use of mice in this study. Research was conducted in adherence with the Association for Research in Vision and Ophthalmology (ARVO) Statement for the Use of Animals in Ophthalmic and Visual Research. Wild type C57B1/6J mice, 6-8 weeks of age, were purchased from Jackson Labs (Bar Harbor, Me.). Prior to use in an experiment, mice were housed in a pathogen-free barrier facility and kept at […], relative humidity 60%±10%, with alternating 12-hour light/dark cycles. To obtain eyes for organ culture, euthanasia was performed using compressed CO2 gas, according to the American Veterinary Medical Association Guidelines for the Euthanasia of Animals: 2013 Edition. […]
Vital dye staining of cells in culture was performed using sodium fluorescein (Sigma-Aldrich). […] Dye uptake was evaluated qualitatively by imaging. Images (excitation/emission=488/510 nm) were taken immediately after washing, so that staining could be evaluated before dye diffused. Fluorescein uptake by cultured cells was quantified using a plate reader and depicted in graphs as relative fluorescence units (RFU). Rose bengal uptake by cultured cells or eyes was quantified using a modification of a previously described method. After imaging, the stained cells or eyes were incubated in 100 uL of DMSO at room temperature for 1 hour, and the solution was recovered into the wells of a 96 well plate to read in a plate reader at 562 nm.

HCLE monolayer cultures [4] = experiment: Endocytosis assay: uptake of Alexa Fluor 568-conjugated TF under oxidative stress; format: cell-based, human; settings: 3 mM tBHP; co-treatment with Dynasore 40 uM; FIG. 2A
Description: (§6) The purpose of this study was to investigate mechanisms of dye uptake relevant to ocular surface disease. We hypothesized that stimulation of plasma membrane remodeling by sublethal cell damage would result in vital dye uptake into endocytic repair vesicles. Oxidative stress has been implicated in ocular surface damage due to dry eye and many other ocular surface disorders, thus we chose this as the damaging stress for our study. An aqueous stock solution of tert-butyl hydroperoxide (tBHP) was diluted into the medium of human cell cultures or mouse eye organ cultures as we have previously described. […] These optimal concentrations were determined empirically in dose-response assessments as causing a high level of vital dye staining without killing cells. […]
as §2
Endocytosis was quantified by monitoring cell uptake of human Alexa Fluor 568-conjugated TF (serum transferrin; Thermo Fisher Scientific, Waltham, Mass.). […] Cells were then imaged with a Keyence BZ-X700 fluorescence microscope (excitation/emission=532/588 nm). Alexa Fluor 568-conjugated TF uptake was quantified by image J analysis.

HCLE monolayer cultures [5] = experiment: MTT/WST-1 metabolic assays for cytotoxicity; format: cell-based, human; settings: 10 mM tBHP, 2 hours; Dynasore 40 uM at the same time; FIG. 5A
Description: as §1, with “atmosphere.” for “atmosphere. Stressed cultures were compared to unstressed controls incubated similarly for the same time period.”
as §2

HCLE monolayer cultures [6] = experiment: Trypan blue exclusion assay; format: cell-based, human; settings: 10 mM tBHP, 3 hours; Dynasore 40 uM at the same time; FIG. 5B
Description: as §6, §2
Cells were stained with filtered 0.4% trypan blue dye (Thermo Fisher Scientific) for 4 minutes following 3 washes with PBS. The extent of staining was measured qualitatively by imaging under white light, and quantitatively using a plate reader at 590 nm.

HCLE stratified cultures [7] = experiment: Lectin binding (fluorescein-conjugated jacalin); format: cell-based, human; settings: 3 mM tBHP, 2 hours; Dynasore 40 uM; FIG. 6A
Description: as §1, with “atmosphere.” for “atmosphere. Stressed cultures were compared to unstressed controls incubated similarly for the same time period.”
as §2

LGALS3 = experiment: Western blotting of LGALS3 in cell culture medium; format: cell-based, human; settings: stratified cultures, 3 mM tBHP, 2 hours; Dynasore 40 uM; FIG. 6B
Description: as §1, with “atmosphere.” for “atmosphere. Stressed cultures were compared to unstressed controls incubated similarly for the same time period.”
as §2

[8] = system: MPS-treated monolayer cells; settings: publication [61]; cited from earlier work
cardiomyocyte = settings: references [56-58]; cited from earlier work

Question: For “CLU: homeostatic protein clusterin, prominent at fluid-tissue interfaces; SEQ ID NO: 1 is the human isoform 2 preproprotein”, which “ocular surface barrier disruption” value (ocular surface barrier) is on record?
Answer: prevents and ameliorates ocular surface barrier disruption

Question: For CN(C)CCCN1c2ccccc2Sc2ccc(Cl)cc21 [Chlorpromazine, Chlorpromazine hydrochloride], which “stress-stimulated fluorescein dye uptake” value [1] is on record?
Answer: blocked

Question: What about the “oxidative stress-stimulated vital dye uptake in stratified and differentiated cell cultures” value (HCLE stratified cultures [2]) of the same compound?
Answer: no effect on vital dye uptake

Question: With O=C(N/N=C/c1cc(O)c(O)cc1O)c1cc2ccccc2cc1O [Dyngo-4a] as the compound, how does the “oxidative stress-stimulated vital dye uptake in stratified and differentiated cell cultures” value (HCLE stratified cultures [2]) read?
Answer: very effective inhibitor of vital dye uptake

Question: And the “vital dye uptake once the damage was done” value [3]?
Answer: no effect on vital dye uptake

Question: Which “stress-stimulated TF uptake (endocytosis)” value (HCLE monolayer cultures [4]) does the source give for O=C(N/N=C/c1ccc(O)c(O)c1)c1cc2ccccc2cc1O [Dynasore] here?
Answer: blocked stress-stimulated TF uptake

Question: And the “stress-stimulated fluorescein dye uptake” value [1]?
Answer: also blocked

Question: What about the “oxidative stress-stimulated vital dye uptake in stratified and differentiated cell cultures” value (HCLE stratified cultures [2]) of the same compound?
Answer: very effective inhibitor

Question: What about the “dye uptake at the ocular surface, post-treatment” value ([3]; then Dynasore 40 uM for 15 or 30 minutes) of the same compound?
Answer: dye uptake was not reduced

Question: And the “dye uptake at the ocular surface, post-treatment” value ([3]; then Dynasore 80 uM for 15 or 30 minutes)?
Answer: dye uptake was not reduced

Question: And the “dye uptake at the ocular surface, co-treatment” value ([3]; 10 mM tBHP, Dynasore 40 uM at the same time as stress, FIG. 4A)?
Answer: dye uptake was prevented

Question: What about the “vital dye uptake once the damage was done” value [3] of the same compound?
Answer: no effect on vital dye uptake

Question: What about the “protection against oxidative stress-induced increase of MTT/WST-1 absorbance” value (HCLE monolayer cultures [5]) of the same compound?
Answer: protective, in particular for the WST-1 assay

Question: What about the “protection against oxidative stress-induced trypan blue staining” value (HCLE monolayer cultures [6]) of the same compound?
Answer: remarkably protective, essentially eliminating trypan blue staining

Question: What about the “jacalin staining of cell surface mucin-type glycoconjugates” value (HCLE stratified cultures [7]) of the same compound?
Answer: no effect

Question: And the “oxidative stress-caused increase in LGALS3 in the cell culture medium” value (LGALS3)?
Answer: inhibited this increase

Question: And the “uptake of fluorescein in MPS-treated cells” value [8]?
Answer: inhibited uptake of fluorescein

Question: And the “cardiomyocyte apoptosis following oxidative stress” value (cardiomyocyte)?
Answer: protects cardiomyocyte against entering apoptosis following oxidative stress

Question: With O=c1c(-c2ccc(O)cc2)coc2cc(O)cc(O)c12 [Genistein] as the compound, how does the “stress-stimulated fluorescein dye uptake” value [1] read?
Answer: blocked

Question: What about the “oxidative stress-stimulated vital dye uptake in stratified and differentiated cell cultures” value (HCLE stratified cultures [2]) of the same compound?
Answer: no effect on vital dye uptake

— patent US20190099468A1, “METHOD TO PROTECT AND SEAL THE OCULAR SURFACE” (UNIVERSITY OF SOUTHERN CALIFORNIA, priority 2017, published 2019)
